Measurements taken from ChEMBL document CHEMBL4017483, “Potent and selective oxytocin receptor agonists without disulfide bridges” (Bioorg Med Chem Lett, 2017).
Numbered stars: 1 amine (or outer) side, 2 acyl side, 3 side chain; on linkers, the order of the positions; unused ones are H or OH. Bridge positions count the residues as written; N and C are the ends. Square brackets hold non-standard residues; d marks the D form. Peptide text beside a SMILES is read from it. Hyp = O=C(O)[C@@H]1C[C@@H](O)CN1; tBuAla = CC(C)(C)C[C@H](N)C(=O)O; Suc = O=C(CCC(=O)[*:2])[*:1]; X1 = O=C(CCC[*:2])[*:1]; Dap = NC[C@H](N)C(=O)O; azaGly = NNC(=O)O; Mpa = O=C(O)CCS; Sar = CNCC(=O)O

Tests used:
[1] = molecular target: T1, Oxytocin receptor (Homo sapiens, UniProt P30559); experiment: Agonist activity at human OTR expressed in CHO cells assessed as calcium mobilization measured after 30 mins by Fluo-4-AM dye based FLIPR assay; format: functional, cell-based
T1 sequence (P30559 whole entry): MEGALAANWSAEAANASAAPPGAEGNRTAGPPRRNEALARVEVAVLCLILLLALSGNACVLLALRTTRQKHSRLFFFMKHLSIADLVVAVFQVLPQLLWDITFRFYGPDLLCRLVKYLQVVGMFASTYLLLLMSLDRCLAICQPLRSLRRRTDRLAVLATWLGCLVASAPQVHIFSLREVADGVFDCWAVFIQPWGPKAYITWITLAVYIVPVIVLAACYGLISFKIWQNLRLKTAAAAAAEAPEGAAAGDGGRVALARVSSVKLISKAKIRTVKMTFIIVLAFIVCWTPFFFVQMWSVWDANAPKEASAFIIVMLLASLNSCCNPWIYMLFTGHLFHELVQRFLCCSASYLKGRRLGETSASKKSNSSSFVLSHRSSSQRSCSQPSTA

[2] = molecular target: Vasopressin V1a receptor (Homo sapiens, UniProt P37288); experiment: Agonist activity at human V1a receptor expressed in CHO cells assessed as calcium mobilization measured after 30 mins by Fluo-4-AM dye based FLIPR assay; format: cell-based
Sequence of Vasopressin V1a receptor (P37288 whole entry): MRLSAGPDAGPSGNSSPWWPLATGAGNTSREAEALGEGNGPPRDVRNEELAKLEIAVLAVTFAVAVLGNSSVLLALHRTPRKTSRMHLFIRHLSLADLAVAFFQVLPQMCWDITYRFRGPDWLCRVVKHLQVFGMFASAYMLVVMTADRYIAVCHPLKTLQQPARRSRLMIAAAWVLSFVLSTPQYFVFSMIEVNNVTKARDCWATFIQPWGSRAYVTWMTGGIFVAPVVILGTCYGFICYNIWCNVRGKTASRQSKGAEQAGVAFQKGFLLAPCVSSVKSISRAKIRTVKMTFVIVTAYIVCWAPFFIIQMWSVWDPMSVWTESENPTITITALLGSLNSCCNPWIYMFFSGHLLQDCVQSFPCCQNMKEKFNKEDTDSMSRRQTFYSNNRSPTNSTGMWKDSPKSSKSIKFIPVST

[3] = molecular target: T2, Vasopressin V1b receptor (Homo sapiens, UniProt P47901); experiment: Agonist activity at human V1b receptor expressed in CHO cells assessed as calcium mobilization measured after 30 mins by Fluo-4-AM dye based FLIPR assay; format: cell-based
T2 sequence (P47901 whole entry): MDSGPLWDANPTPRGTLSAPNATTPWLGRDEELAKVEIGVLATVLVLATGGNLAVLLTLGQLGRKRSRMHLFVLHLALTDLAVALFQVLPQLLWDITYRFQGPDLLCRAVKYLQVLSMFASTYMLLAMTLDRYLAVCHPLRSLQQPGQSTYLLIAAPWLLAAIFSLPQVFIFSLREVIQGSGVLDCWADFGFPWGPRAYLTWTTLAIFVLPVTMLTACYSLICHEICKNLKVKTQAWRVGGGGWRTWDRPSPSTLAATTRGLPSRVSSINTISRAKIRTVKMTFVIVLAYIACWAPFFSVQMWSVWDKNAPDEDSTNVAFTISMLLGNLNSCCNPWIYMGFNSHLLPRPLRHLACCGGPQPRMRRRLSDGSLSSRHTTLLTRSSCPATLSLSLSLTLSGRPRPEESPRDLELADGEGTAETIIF

[4] = species: Homo sapiens; experiment: Selectivity ratio of EC50 for human V1a receptor to EC50 for human OTR
[5] = species: Homo sapiens; experiment: Selectivity ratio of EC50 for human V1b receptor to EC50 for human OTR

Row | Compound | EC50 [1] | EC50 [2] | EC50 [3] | Ratio EC50 [4] | Ratio EC50 [5]
1 | CC[C@H](C)[C@@H]1NC(=O)[C@H](Cc2ccc(O)cc2)NC(=O)CCSSC[C@@H](C(=O)N2CCC[C@H]2C(=O)N[C@H](C(=O)NCC(N)=O)C(C)C)NC(=O)[C@H](CC(N)=O)NC(=O)[C@H](CCC(N)=O)NC1=O ([Mpa]YIQNCPVG-NH2; disulfide 1-6) | 0.014 nM | 5.1 nM | 1.3 nM | 360 | 93
2 | CC[C@H](C)[C@@H]1NC(=O)[C@H](Cc2ccc(O)cc2)NC(=O)CCSSC[C@@H](C(=O)N[C@@H](CCCNC(=N)N)C(=O)N[C@@H](CC(C)C)C(=O)NCC(N)=O)NC(=O)[C@H](CC(N)=O)NC(=O)[C@H](CCC(N)=O)NC1=O ([Mpa]YIQNCRLG-NH2; disulfide 1-6) | 1.5 nM | > 100 nM | > 100 nM | > 10 | > 10
3 | CC[C@H](C)[C@@H]1NC(=O)[C@H](Cc2ccc(O)cc2)NC(=O)CCCSC[C@@H](C(=O)N2C[C@H](O)C[C@H]2C(=O)N[C@@H](CC(C)C)C(=O)NCC(N)=O)NC(=O)[C@H](CC(N)=O)NC(=O)[C@H](CCC(N)=O)NC1=O (YIQNC[Hyp]LG-NH2; linker N-5 via X1) | 0.0055 nM | > 100 nM | > 100 nM | > 10000 | > 10000
4 | CC[C@H](C)[C@@H]1NC(=O)[C@H](Cc2ccc(O)cc2)NC(=O)CCSSC[C@@H](C(=O)N[C@@H](CO)C(=O)N[C@@H](CC(C)C)C(=O)NCC(N)=O)NC(=O)[C@H](CC(N)=O)NC(=O)[C@H](CCC(N)=O)NC1=O ([Mpa]YIQNCSLG-NH2; disulfide 1-6) | 0.082 nM | > 100 nM | > 100 nM | > 1000 | > 1000
5 | CC[C@H](C)[C@@H]1NC(=O)[C@H](Cc2ccc(O)cc2)NC(=O)CCC(=O)NC[C@@H](C(=O)N2CCC[C@H]2C(=O)N[C@@H](CC(C)(C)C)C(=O)NCC(N)=O)NC(=O)[C@H](CC(N)=O)NC(=O)[C@H](CCC(N)=O)NC1=O (YIQN[Dap]P[tBuAla]G-NH2; linker N-5 via Suc) | 0.26 nM | > 100 nM | > 100 nM | > 100 | > 100
6 | CC(C)C[C@H](NC(=O)[C@@H]1CCCN1C(=O)[C@@H]1CSSCCC(=O)N[C@@H](Cc2ccc(O)cc2)C(=O)N[C@@H](C)C(=O)N[C@@H](CCC(N)=O)C(=O)N[C@@H](CC(N)=O)C(=O)N1)C(=O)NCC(N)=O ([Mpa]YAQNCPLG-NH2; disulfide 1-6) | 4.4 nM | > 100 nM | > 100 nM | > 10 | > 10
7 | CC[C@H](C)[C@@H]1NC(=O)[C@H](Cc2ccc(O)cc2)NC(=O)CCSSC[C@@H](C(=O)N2CCC[C@H]2C(=O)N[C@@H](CC(C)C)C(=O)N[C@@H](Cc2ccccc2)C(N)=O)NC(=O)[C@H](CC(N)=O)NC(=O)[C@H](CCC(N)=O)NC1=O ([Mpa]YIQNCPLF-NH2; disulfide 1-6) | 1.6 nM | > 100 nM | > 100 nM | > 10 | > 10
8 | CC[C@H](C)[C@@H]1NC(=O)[C@H](Cc2ccc(O)cc2)NC(=O)CCSSC[C@@H](C(=O)N[C@@H](Cc2ccccc2)C(=O)N[C@@H](CC(C)C)C(=O)NCC(N)=O)NC(=O)[C@H](CC(N)=O)NC(=O)[C@H](CCC(N)=O)NC1=O ([Mpa]YIQNCFLG-NH2; disulfide 1-6) | 0.12 nM | > 100 nM | > 100 nM | > 100 | > 100
9 | CC[C@H](C)[C@@H]1NC(=O)[C@H](Cc2ccc(O)cc2)NC(=O)CCSSC[C@@H](C(=O)N(C)CC(=O)N[C@@H](CC(C)C)C(=O)NCC(N)=O)NC(=O)[C@H](CC(N)=O)NC(=O)[C@H](CCC(N)=O)NC1=O ([Mpa]YIQNC[Sar]LG-NH2; disulfide 1-6) | 0.0069 nM | > 100 nM | > 100 nM | > 10000 | > 10000
10 | CC[C@H](C)[C@@H]1NC(=O)[C@H](Cc2ccc(O)cc2)NC(=O)CCSSC[C@@H](C(=O)N[C@@H](CC(C)C)C(=O)N[C@@H](CC(C)C)C(=O)NCC(N)=O)NC(=O)[C@H](CC(N)=O)NC(=O)[C@H](CCC(N)=O)NC1=O ([Mpa]YIQNCLLG-NH2; disulfide 1-6) | 3.4 nM | > 100 nM | > 100 nM | > 10 | > 10
11 | CC[C@H](C)[C@@H]1NC(=O)[C@H](Cc2ccc(O)cc2)NC(=O)CCSSC[C@@H](C(=O)N2CCC[C@H]2C(=O)N[C@@H](CC(C)(C)C)C(=O)NCC(N)=O)NC(=O)[C@H](CC(N)=O)NC(=O)[C@H](CCC(N)=O)NC1=O | 0.0086 nM | > 100 nM | > 100 nM | > 10000 | > 10000
12 | CC[C@H](C)[C@@H]1NC(=O)[C@H](Cc2ccc(O)cc2)NC(=O)CCSSC[C@@H](C(=O)N2CCC[C@H]2C(=O)N[C@@H](CC(C)C)C(=O)NCC(N)=O)NC(=O)[C@H](CC(N)=O)NC(=O)[C@H](CCCNC(=N)N)NC1=O ([Mpa]YIRNCPLG-NH2; disulfide 1-6) | 1.2 nM | > 100 nM | 9 nM | > 10 | 7.5
13 | CC[C@H](C)[C@@H]1NC(=O)[C@H](Cc2ccc(O)cc2)NC(=O)CCC(=O)NC[C@@H](C(=O)N2C[C@H](O)C[C@H]2C(=O)N[C@@H](CC(C)C)C(=O)NNC(N)=O)NC(=O)[C@H](CC(N)=O)NC(=O)[C@H](CCC(N)=O)NC1=O (YIQN[Dap][Hyp]L[azaGly]-NH2; linker N-5 via Suc) | 0.031 nM | > 100 nM | > 100 nM | > 1000 | > 1000
14 | CC[C@H](C)[C@@H]1NC(=O)[C@H](Cc2ccc(O)cc2)NC(=O)CCSSC[C@@H](C(=O)N2CCC[C@H]2C(=O)N[C@@H](C)C(=O)NCC(N)=O)NC(=O)[C@H](CC(N)=O)NC(=O)[C@H](CCC(N)=O)NC1=O ([Mpa]YIQNCPAG-NH2; disulfide 1-6) | 0.021 nM | 4.2 nM | 0.17 nM | 200 | 8.1
15 | CC[C@H](C)[C@@H]1NC(=O)[C@H](Cc2ccc(O)cc2)NC(=O)CCSSC[C@@H](C(=O)N2CCC[C@H]2C(=O)N[C@@H](CC(C)C)C(=O)N[C@@H](CCC(=O)O)C(N)=O)NC(=O)[C@H](CC(N)=O)NC(=O)[C@H](CCC(N)=O)NC1=O ([Mpa]YIQNCPLE-NH2; disulfide 1-6) | 9.5 nM | > 100 nM | > 100 nM | > 10 | > 10
16 | CC[C@H](C)[C@@H]1NC(=O)[C@H](Cc2ccc(O)cc2)NC(=O)CCSSC[C@@H](C(=O)N2CCC[C@H]2C(=O)N[C@@H](Cc2ccccc2)C(=O)NCC(N)=O)NC(=O)[C@H](CC(N)=O)NC(=O)[C@H](CCC(N)=O)NC1=O ([Mpa]YIQNCPFG-NH2; disulfide 1-6) | 0.054 nM | > 100 nM | 2.4 nM | > 1000 | 44
17 | CC[C@H](C)[C@@H]1NC(=O)[C@H](Cc2ccc(O)cc2)NC(=O)CCC(=O)NC[C@@H](C(=O)N2CCC[C@H]2C(=O)N[C@@H](CC(C)C)C(=O)NCC(N)=O)NC(=O)[C@H](CC(N)=O)NC(=O)[C@H](CCC(N)=O)NC1=O (YIQN[Dap]PLG-NH2; linker N-5 via Suc) | 0.12 nM | > 100 nM | > 100 nM | > 100 | > 100
18 | CC[C@H](C)[C@@H]1NC(=O)[C@H](Cc2ccc(O)cc2)NC(=O)CCSSC[C@@H](C(=O)N2C[C@H](O)C[C@H]2C(=O)N[C@@H](CC(C)C)C(=O)NCC(N)=O)NC(=O)[C@H](CC(N)=O)NC(=O)[C@H](CCC(N)=O)NC1=O | 0.0053 nM | > 100 nM | > 100 nM | > 10000 | > 10000
19 | CC[C@H](C)[C@@H]1NC(=O)[C@H](Cc2ccc(O)cc2)NC(=O)CCSSC[C@@H](C(=O)N[C@@H](CCC(=O)O)C(=O)N[C@@H](CC(C)C)C(=O)NCC(N)=O)NC(=O)[C@H](CC(N)=O)NC(=O)[C@H](CCC(N)=O)NC1=O ([Mpa]YIQNCELG-NH2; disulfide 1-6) | 0.35 nM | > 100 nM | > 100 nM | > 100 | > 100
20 | CC(C)C[C@@H]1NC(=O)[C@H](Cc2ccc(O)cc2)NC(=O)CCSSC[C@@H](C(=O)N2CCC[C@H]2C(=O)N[C@@H](CC(C)C)C(=O)NCC(N)=O)NC(=O)[C@H](CC(N)=O)NC(=O)[C@H](CCC(N)=O)NC1=O ([Mpa]YLQNCPLG-NH2; disulfide 1-6) | 0.19 nM | > 100 nM | 3.9 nM | > 100 | 21
